Here are results for 22 molecules from patent publication US20230111310A1, “CARBOXYLIC ACID DERIVATIVE-SUBSTITUTED IMINO ARYL COMPOUND, PREPARATION METHOD THEREFOR, HERBICIDAL COMPOSITION AND USE THEREOF” (Qingdao Kingagroot Chemical Compound Co., Ltd., priority 2020, published 2023).

Experiment in all cases: Weeding effect in post-emergence stage
Common to all, as to format: in vivo

One assay deals with Abutilon theophrasti. Conditions: for Weeding effect in post-emergence stage, Abutilon theophrasti: level of fresh weight growth control rate; for Weeding effect in post-emergence stage, Abutilon theophrasti (level): fresh weight control rate level. From the text: (§1) The activity level criteria for plant damage (i.e., growth control rate) are as follows:
(§2) Monocotyledonous and dicotyledonous weed seeds (Descurainia sophia, Capsella bursa-pastoris, Abutilon theophrasti, Galium aparine, Stellaria media, Lithospermum arvense, rorippa indica, Alopecurus aequalis, Alopecurus japonicus, Eleusine indica, Beckmannia syzigachne, Sclerochloa dura, Conyza Canadensis, Phleum paniculatum, Veronica didyma Tenore, Bromus japonicus, Aegilops tauschii, Phalaris arundinacea, Amaranthus retroflexus, Chenopodiaceae, Commelina communis, Sonchus arvensis, Convolvulus arvensis, Cirsium setosum, Bidens tripartita L., Solanum nigrum, Acalypha australis, Digitaria sanguinalis, Echinochloa crusgalli, Setaria viridis, Setaria glauca, Leptochloa chinensis, Monochoria vaginalis, Sagittaria trifolia, Scirpus juncoides, Cyperus rotundus, Cyperus iria, Cyperus difformis, Fimbristylis, Portulaca oleracea, Xanthium sibiricum, Pharbitis nil, etc.) and major crop seeds (wheat, corn, rice, soybean, cotton, oilseed rape, millet, sorghum, potato, sesame, ricinus, etc.) were placed in plastic pots filled with soil, then covered with 0.5-2 cm of soil, allowed to grow in a good greenhouse environment. After 2 weeks of sowing, the test plants were treated in the 2-3 leaf stage. The tested compounds of the present invention were respectively dissolved in acetone, then added with Tween 80 and 1.5 liter/ha of emulsifiable concentrate of methyl oleate as synergist, diluted with a certain amount of water to obtain a solution with a certain concentration, and sprayed with a spray tower onto the plants. After the application, the plants were cultured for 3 weeks in the greenhouse, and then the experimental results of the weeding were counted. […]

In a further assay the test system is Eleusine indica. The settings on record: Dose 15 g/ha; level of fresh weight growth control rate.
From the text: as §1, §2

A further assay concerns Digitaria sanguinalis. The settings on record: Dose 15 g/ha; level of fresh weight growth control rate.
From the text: as §1, §2

Another assay relates to Setaria viridis. The settings on record: Dose 15 g/ha; level of fresh weight growth control rate.
From the text: as §1, §2

The next assay relates to Echinochloa crusgalli. Conditions: Dose 15 g/ha; level of fresh weight growth control rate.
From the text: as §1
Monocotyledonous and dicotyledonous weed seeds (Descurainia sophia, Capsella bursa-pastoris, Abutilon theophrasti, Galium aparine, Stellaria media, Lithospermum arvense, rorippa indica, Alopecurus aequalis, Alopecurus japonicus, Eleusine indica, Beckmannia syzigachne, Sclerochloa dura, Conyza Canadensis, Phleum paniculatum, Veronica didyma Tenore, Bromus japonicus, Aegilops tauschii, Phalaris arundinacea, Amaranthus retroflexus, Chenopodiaceae, Commelina communis, Sonchus arvensis, Convolvulus arvensis, Cirsium setosum, Bidens tripartita L., Solanum nigrum, Acalypha australis, Digitaria sanguinalis, Echinochloa crusgalli, Setaria viridis, Setaria glauca, Leptochloa chinensis, Monochoria vaginalis, Sagittaria trifolia, Scirpus juncoides, Cyperus rotundus, Cyperus iria, Cyperus difformis, Fimbristylis, Portulaca oleracea, Xanthium sibiricum, Pharbitis nil, etc.) and major crop seeds (wheat, corn, rice, soybean, cotton, oilseed rape, millet, sorghum, potato, sesame, ricinus, etc.) were placed in plastic pots filled with soil, then covered with 0.5-2 cm of soil, allowed to grow in a good greenhouse environment. After 2 weeks of sowing, the test plants were treated in the 2-3 leaf stage. The tested compounds of the present invention were respectively dissolved in acetone, then added with Tween 80 and 1.5 liter/ha of emulsifiable concentrate of methyl oleate as synergist, diluted with a certain amount of water to obtain a solution with a certain concentration, and sprayed with a spray tower onto the plants. After the application, the plants were cultured for 3 weeks in the greenhouse, and then the experimental results of the weeding were counted. The doses of the used compounds were 500, 250, 125, 60, 30, 15, 7.5 g/ha, and the averages were obtained by repeating for three times.

Consider `COC(=O)C(C)O/N=C/c1cc(-n2c(=O)n(C)c(=S)n(C)c2=O)c(F)cc1C(F)(F)F` (racemic) [Compound 85], for which the “Weeding effect in post-emergence stage, Abutilon theophrasti” value in the assay on Abutilon theophrasti (Dose 15 g/ha) is 5 (Level 5: growth control rate is above 85%). Further, the “Weeding effect in post-emergence stage, Eleusine indica” value (from here on “Weeding effect … Eleusine indica”) in the assay on Eleusine indica was 5 (Level 5: growth control rate is above 85%). Moreover, the “Weeding effect in post-emergence stage, Digitaria sanguinalis” value (shortened to “Weeding effect … Digitaria sanguinalis”) with Digitaria sanguinalis was 5 (Level 5: growth control rate is above 85%). Also, the “Weeding effect in post-emergence stage, Setaria viridis” value (from here on “Weeding effect … Setaria viridis”) with Setaria viridis was 5 (Level 5: growth control rate is above 85%). The “Weeding effect in post-emergence stage, Echinochloa crusgalli” value (shortened to “Weeding effect … Echinochloa crusgalli”) with Echinochloa crusgalli was 5 (Level 5: growth control rate is above 85%).
With `CCC(C)(O/N=C/c1cc(-n2c(=O)cc(C(F)(F)F)n(C)c2=O)c(F)cc1Cl)C(=O)OC` (racemic) [Compound 471], in the assay with Abutilon theophrasti (Dose 15 g/ha), the “Weeding effect in post-emergence stage, Abutilon theophrasti (level)” value (from here on “Weeding effect … (level)”) is 5 (Level 5: growth control rate is above 85%).
Still for that read-out and setting: the figure for `COC(=O)C(C)O/N=C/c1cc(-n2c(=O)c(Br)c(C(F)(F)F)n(C)c2=O)c(F)cc1Cl` (racemic) [Compound 475] is 5 (Level 5: growth control rate is above 85%).
With `COC(=O)C(C)O/N=C/c1cc(-n2c(=O)c(I)c(C(F)(F)F)n(C)c2=O)c(F)cc1Cl` (racemic) [Compound 476], in the assay with Abutilon theophrasti (Dose 15 g/ha), the “Weeding effect … (level)” value is 5 (Level 5: growth control rate is above 85%).
Still for that read-out and setting: the result for `COC(=O)C(C)O/N=C/c1cc(-n2c(=O)c(OC)c(C(F)(F)F)n(C)c2=O)c(F)cc1Cl` (racemic) [Compound 477] reads 5 (Level 5: growth control rate is above 85%).
`CC(O/N=C/c1cc(-n2c(=O)c(CCO)c(C(F)(F)F)n(C)c2=O)c(F)cc1Cl)C(=O)OCCO` (racemic) [Compound 478]: the “Weeding effect … (level)” value in the assay with Abutilon theophrasti (Dose 60 g/ha) is on record as 5 (Level 5: growth control rate is above 85%).
`COC(=O)CC(C)O/N=C/c1cc(-n2c(=O)cc(C(F)(F)F)n(C)c2=O)c(F)cc1Cl` (racemic) [Compound 481]: the “Weeding effect … (level)” value in the assay with Abutilon theophrasti (Dose 15 g/ha) was 5 (Level 5: growth control rate is above 85%).
Consider `CCC[C@@H](O/N=C/c1cc(-n2c(=O)n(C)c(=S)n(C)c2=O)c(F)cc1Cl)C(=O)OCC` [74(R)], for which the “Weeding effect in post-emergence stage, Abutilon theophrasti” value with Abutilon theophrasti (Dose 15 g/ha) is listed as 5 (Level 5: growth control rate is above 85%). In addition, the “Weeding effect … Eleusine indica” value with Eleusine indica was 5 (Level 5: growth control rate is above 85%). Besides, in the assay with Digitaria sanguinalis, the “Weeding effect … Digitaria sanguinalis” value was 4 (Level 4: growth control rate is greater than or equal to 60% and less than 85%). Besides, the “Weeding effect … Setaria viridis” value in the assay with Setaria viridis is listed as 5 (Level 5: growth control rate is above 85%). The “Weeding effect … Echinochloa crusgalli” value in the assay with Echinochloa crusgalli is reported as 5 (Level 5: growth control rate is above 85%).
Regarding `CC(ON=Cc1cc(-n2c(=O)cc(C(F)(F)F)n(C)c2=O)c(F)cc1Cl)C(=O)OCCOC(=O)C(C)ON=Cc1cc(-n2c(=O)cc(C(F)(F)F)n(C)c2=O)c(F)cc1Cl` [451(R)], the “Weeding effect … (level)” value with Abutilon theophrasti (Dose 15 g/ha) is reported as 5 (Level 5: growth control rate is above 85%).
On to `C[C@@H](O/N=C/c1cc(-n2c(=O)cc(C(F)(F)F)n(C)c2=O)c(F)cc1Cl)C(=O)NO` [452(R)], for which, in the assay on Abutilon theophrasti (Dose 15 g/ha), the “Weeding effect … (level)” value is on record as 5 (Level 5: growth control rate is above 85%).
For the molecule `CC[C@@](C)(O/N=C/c1cc(-n2c(=O)cc(C(F)(F)F)n(C)c2=O)c(F)cc1Cl)C(=O)OC` [471(R)], in the assay on Abutilon theophrasti (Dose 15 g/ha), the “Weeding effect … (level)” value is 5 (Level 5: growth control rate is above 85%).
With `COC(=O)[C@@H](C)O/N=C/c1cc(-n2c(=O)c(Br)c(C(F)(F)F)n(C)c2=O)c(F)cc1Cl` [475(R)], in the assay with Abutilon theophrasti (Dose 15 g/ha), the “Weeding effect … (level)” value is 5 (Level 5: growth control rate is above 85%).
In the case of `COC(=O)[C@@H](C)O/N=C/c1cc(-n2c(=O)c(I)c(C(F)(F)F)n(C)c2=O)c(F)cc1Cl` [476(R)], in the assay on Abutilon theophrasti (Dose 15 g/ha), the “Weeding effect … (level)” value is listed as 5 (Level 5: growth control rate is above 85%).
Regarding `COC(=O)[C@@H](C)O/N=C/c1cc(-n2c(=O)c(OC)c(C(F)(F)F)n(C)c2=O)c(F)cc1Cl` [477(R)], the “Weeding effect … (level)” value with Abutilon theophrasti (Dose 15 g/ha) is 5 (Level 5: growth control rate is above 85%).
In the case of `C[C@@H](O/N=C/c1cc(-n2c(=O)c(CCO)c(C(F)(F)F)n(C)c2=O)c(F)cc1Cl)C(=O)OCCO` [478(R)], the “Weeding effect … (level)” value with Abutilon theophrasti (Dose 60 g/ha) was 5 (Level 5: growth control rate is above 85%).
Take `COC(=O)C[C@@H](C)O/N=C/c1cc(-n2c(=O)cc(C(F)(F)F)n(C)c2=O)c(F)cc1Cl` [481(R)]: the “Weeding effect … (level)” value in the assay on Abutilon theophrasti (Dose 15 g/ha) is given as 5 (Level 5: growth control rate is above 85%).
Consider `CC(O/N=C/c1cc(-n2c(=O)n(C)c(=S)n(C)c2=O)c(F)cc1Cl)C(=O)OCc1cccnc1` (centres unmarked) [Compound 59], for which the “Weeding effect in post-emergence stage, Abutilon theophrasti” value in the assay on Abutilon theophrasti (Dose 15 g/ha) is on record as 5 (Level 5: growth control rate is above 85%). Further, the “Weeding effect … Eleusine indica” value in the assay with Eleusine indica is listed as 5 (Level 5: growth control rate is above 85%). Besides, the “Weeding effect … Digitaria sanguinalis” value in the assay with Digitaria sanguinalis was 5 (Level 5: growth control rate is above 85%). Moreover, the “Weeding effect … Setaria viridis” value in the assay on Setaria viridis is reported as 5 (Level 5: growth control rate is above 85%). In addition, the “Weeding effect … Echinochloa crusgalli” value with Echinochloa crusgalli is on record as 5 (Level 5: growth control rate is above 85%).
As for `CCCC(O/N=C/c1cc(-n2c(=O)n(C)c(=S)n(C)c2=O)c(F)cc1Cl)C(=O)OCC` (centres unmarked) [Compound 74], the “Weeding effect in post-emergence stage, Abutilon theophrasti” value with Abutilon theophrasti (Dose 15 g/ha) is listed as 5 (Level 5: growth control rate is above 85%). For the same molecule, the “Weeding effect … Eleusine indica” value in the assay on Eleusine indica is 4 (Level 4: growth control rate is greater than or equal to 60% and less than 85%). Moreover, the “Weeding effect … Digitaria sanguinalis” value in the assay with Digitaria sanguinalis was 4 (Level 4: growth control rate is greater than or equal to 60% and less than 85%). For the same molecule, the “Weeding effect … Setaria viridis” value with Setaria viridis is reported as 5 (Level 5: growth control rate is above 85%). Also, the “Weeding effect … Echinochloa crusgalli” value with Echinochloa crusgalli is 5 (Level 5: growth control rate is above 85%).
Regarding `CC(O/N=C/c1cc(-n2c(=O)cc(C(F)(F)F)n(C)c2=O)c(F)cc1Cl)C(=O)OCCOC(=O)C(C)O/N=C/c1cc(-n2c(=O)cc(C(F)(F)F)n(C)c2=O)c(F)cc1Cl` (centres unmarked) [Compound 451], the “Weeding effect … (level)” value in the assay on Abutilon theophrasti (Dose 15 g/ha) is on record as 5 (Level 5: growth control rate is above 85%).
With `CC(O/N=C/c1cc(-n2c(=O)cc(C(F)(F)F)n(C)c2=O)c(F)cc1Cl)C(=O)NO` (centres unmarked) [Compound 452], in the assay on Abutilon theophrasti (Dose 15 g/ha), the “Weeding effect … (level)” value was 5 (Level 5: growth control rate is above 85%).
Regarding `COC(=O)CCO/N=C/c1cc(-n2c(=O)cc(C(F)(F)F)n(C)c2=O)c(F)cc1Cl` [Compound 479], in the assay with Abutilon theophrasti (Dose 15 g/ha), the “Weeding effect … (level)” value is given as 5 (Level 5: growth control rate is above 85%).
On the same count and under the same terms, the result for `CCOC(=O)CCO/N=C/c1cc(-n2c(=O)cc(C(F)(F)F)n(C)c2=O)c(F)cc1Cl` [Compound 480] reads 5 (Level 5: growth control rate is above 85%).
